{
  "source": "patent US10537610B1",
  "about": "“Peptide for inhibition of cancer” (priority 2018, dated 2020)",
  "key": {"[1]": {"system": "MCF-10A cells on HMEC-1 cells", "assay": "Adhesion of non-tumorigenic MCF-10A cells to endothelial monolayer under static conditions", "type": "cell-based, human", "details": "P4D 500 μM; TNF/IFN-treated HMEC-1", "procedure": "The peptides were synthesized and purified by LifeTein, LLC (Somerset, N.J., USA) with the purity of not less than 95% using PeptideSyn™ technology that incorporates solid phase fluorenylmethyloxycarbonyl (Fmoc) chemistry. The cells were treated with the peptide P4D for 0, 1, 5, or 24 hours at a concentration of 500 μM. The cells treated with the Scrambled peptide P4D (Scr; 500 μM; 0, 1, 5, or 24 hours incubation time) were used as a negative control. In order to provide the positive control of the junctions tightening for impedance-based measurements of endothelial permeability, the cells were incubated with the potent activator of TJ assembly, forskolin (FSK; BioShop, Burlington, ON, Canada), for 24 hours at a concentration of 10 μM.\nAdhesion of human breast cancer (MCF-7, MDA-MB-231) or non-tumorigenic (MCF-10A) human breast cells to HMEC-1 cells was performed in 24-well plates. HMEC-1 cells were seeded to the bottom of the fibronectin-coated wells 2 days before the assay to form the monolayer and subjected to a suitable treatment. Breast cancer or non-tumorigenic cells were starved overnight and on the day of the assay were labeled with CellTracker Green CMFDA Dye for 30 minutes. […] The adherent cells were lysed by 2% SDS and the fluorescence was measured using the Wallac 1420 VICTOR2 Multilabel Counter (PerkinElmer) at 492 nm of excitation and 517 nm of emission wavelengths."}, "soluble JAM-A": {"system": "soluble JAM-A", "assay": "ELISA of JAM-A antigen in plasma, murine 4T1 breast cancer model", "type": "in vivo, mouse", "details": "4T1 tumor-bearing BALB/c mice and control littermates; Tβ4 15 μg/kg or TGF-β1 5 μg/kg i.p., 21 days", "procedure": "All in vivo experiments were carried on female BALB/c mice aged 8 to 12 weeks purchased from Animal House of Institute of Biology, University of Bialystok (Bialystok, Poland). The mice were housed under standard conditions at the Animal House of the Medical University of Lodz (Lodz, Poland). All animal procedures and protocols were conducted in accordance with the Guide for the Care and Use of Laboratory Animals of the National Animal Care Committee and were approved by Local Ethical Committee for Animal Research in Lodz (license number 9/LB51/2017 from Jun. 2, 2017). All efforts were made to minimize animal suffering.\nMurine 4T1 cells were purchased from the American Type Culture Collection (ATCC, Manassas, Va., USA). The cells were maintained in RPMI-1640 (ATCC) with 10/o fetal bovine serum (FBS) and cultured in tissue culture flasks to 80% confluence. […]\nThe unbound biotinylated antibody was washed away and HRP-conjugated streptavidin was added to the wells. […] Regarding the both protocols, the enzyme-substrate (HRP-TMB) reaction was terminated by the addition of a sulfuric acid solution and the color change was measured spectrophotometrically at a wavelenght of 450 nm using the Wallac 1420 VICTOR2 Multilabel Counter (PerkinElmer). The concentration of target antigen in the samples was determined by comparing the optical density of the samples to the standard curve."}},
  "note": "Non-standard residues stand in square brackets, D forms with d. Residues, ends and D or L forms follow the SMILES beside them.",
  "data": [
    {"molecule": "CC(C)[C@H](NC(=O)[C@H](CO)NC(=O)[C@H](N)CCCCN)C(=O)N[C@H](C(=O)N[C@H](CCCNC(=N)N)C(=O)N[C@@H](CCC(=O)O)C(=O)N[C@@H](CC(=O)O)C(=O)N[C@H](C(=O)NCC(=O)N[C@H](C(=O)N[C@@H](Cc1ccc(O)cc1)C(=O)N[C@H](C(=O)N[C@@H](CS)C(N)=O)[C@@H](C)O)[C@@H](C)O)[C@@H](C)O)[C@@H](C)O", "note": "[Peptide P4D, NH2-(dK)-SVT-(dR)-EDTGTYTC-CONH2] (H-[dK]SVT[dR]EDTGTYTC-NH2)", "values": [
      {"measurement": "adhesion of MCF-10A cells to cytokine-treated endothelium", "setting": "[1]", "result": "markedly inhibited"}
    ]},
    {"molecule": "Thymosin β4 (SDKPDMAEIEKFDKSKLKKTETQEKNPLPSKETIEQEKQAGES; not fully specified; Thymosin beta-4; UniProt P62328 2-44, looked up) [Tβ4]", "values": [
      {"measurement": "JAM-A level in plasma", "setting": "soluble JAM-A", "result": "decrease JAM-A level in plasma"}
    ]}
  ]
}
